Results: patent US11091876B2, “Moisture resistant biodegradable composition” (AUTOM RIVER INC., priority 2015, dated 2021)

Experiments:
[1] = system: plants; details: cited from earlier work
[2] = system: mosquitoes; test: Mosquito mortality with insecticide-sprayed water-filled containers in a closed area; assay type: in vivo; details: containers double sprayed, after about 4 weeks
Description: The biodegradable containers also successfully functioned as a mosquito trap. For example, containers were double sprayed with lambda-cyalothrin, filled with water and placed in a closed area with a known number of mosquitoes. After about 4 weeks, mosquito mortality was measured by counting the number of live mosquitoes compared to the dead mosquitoes. 100% mosquito mortality was achieved.

SMILES	incompatibility on cultivated plants [1]	phytotoxicity to most plants ([1]; when used as directed)	mosquito mortality [2] [%]
CC1(C)C(C=C(Cl)Cl)C1C(=O)OCc1cccc(Oc2ccccc2)c1 (stereo not drawn) [permethrin]	No incompatibility has been observed	not phytotoxic	–
CC1(C)[C@H](C(=O)O[C@H](C#N)c2cccc(Oc3ccccc3)c2)[C@@H]1/C=C(\Cl)C(F)(F)F [lambda-cyalothrin]	–	–	100
